Assay type in all cases: functional
Assay [1] deals with Staphylococcus aureus. The assay can be described thus: Antibacterial activity against methicillin-susceptible Staphylococcus aureus by agar dilution method. In general terms: In agar dilution, organisms are placed on agar that contains the substance at set levels.
Assay [2] has as its system Staphylococcus aureus. The assay can be described thus: Antibacterial activity against methicillin-resistant Staphylococcus aureus by agar dilution method.
Another assay has as its system Moraxella catarrhalis. Briefly: Antibacterial activity against Moraxella catarrhalis by agar dilution method.
Assay [3] has as its system Enterococcus. Briefly: Antibacterial activity against vancomycin-sensitive Enterococcus by agar dilution method.
Another assay deals with Escherichia coli. Briefly: Antibacterial activity against Escherichia coli ATCC 25922 by agar dilution method.
For assay [4], the system named is Haemophilus influenzae. Briefly: Antibacterial activity against Haemophilus influenzae isolate 282 by agar dilution method.
Assay [5] deals with Haemophilus influenzae. The assay can be described thus: Antibacterial activity against Haemophilus influenzae isolate 285 by agar dilution method.
Assay [6] relates to Staphylococcus. The assay can be described thus: Antibacterial activity against methicillin resistant coagulase-negative Staphylococcus by agar dilution method.
The subject of assay [7] is Staphylococcus aureus. Briefly: Antibacterial activity against Staphylococcus aureus ATCC 25923 by agar dilution method in presence of human plasma. Conditions: ATCC 25923, Plasma.
Assay [8] concerns Staphylococcus aureus. The assay can be described thus: Antibacterial activity against Staphylococcus aureus ATCC 25923 by agar dilution method.
The test system of assay [9] is Haemophilus influenzae. The assay can be described thus: Antibacterial activity against Haemophilus influenzae isolate 283 by agar dilution method.
Assay [10] relates to Haemophilus influenzae. Briefly: Antibacterial activity against Haemophilus influenzae isolate 280 by agar dilution method.
Assay [11] has as its system Enterococcus. The assay can be described thus: Antibacterial activity against vancomycin-resistant Enterococcus by agar dilution method.
The test system of the next assay is Streptococcus pneumoniae. Briefly: Antibacterial activity against Streptococcus pneumoniae by agar dilution method.
The subject of assay [12] is Haemophilus influenzae. The assay can be described thus: Antibacterial activity against Haemophilus influenzae ATCC 49247 by agar dilution method.
In assay [13] the test system is Staphylococcus. Briefly: Antibacterial activity against methicillin-sensitive coagulase-negative Staphylococcus by agar dilution method.

Converted amounts (≈) assume the structure as drawn.

This is an account of results in ChEMBL document CHEMBL1153012, “Synthesis and antibacterial activity of novel 5-(4-methyl-1H-1,2,3-triazole) methyl oxazolidinones” (2009).

On to `Cc1cn(C[C@H]2CN(c3ccc(N4CCN(C(=O)C(Cl)(Cl)Cl)CC4)c(F)c3)C(=O)O2)nn1`, for which the MIC was 1 µg/mL (≈ 1.98 µM) in the assay with Staphylococcus aureus [1]; 1 µg/mL (≈ 1.98 µM) with Staphylococcus aureus [2]; 32 µg/mL (≈ 63.3 µM) against Moraxella catarrhalis; 1 µg/mL (≈ 1.98 µM) in the assay on Enterococcus [3]; above 64 µg/mL with Escherichia coli; above 64 µg/mL with Haemophilus influenzae [4]. In addition, the MIC against Haemophilus influenzae [5] was above 64 µg/mL; against Staphylococcus [6], 1 µg/mL (≈ 1.98 µM); in the assay with Staphylococcus aureus [7], 16 µg/mL; with Staphylococcus aureus [8], 1 µg/mL (≈ 1.98 µM); in the assay on Haemophilus influenzae [9], above 64 µg/mL; against Haemophilus influenzae [10], above 64 µg/mL. The MIC against Enterococcus [11] was 1 µg/mL (≈ 1.98 µM); in the assay with Streptococcus pneumoniae, 4 µg/mL (≈ 7.91 µM); against Haemophilus influenzae [12], above 64 µg/mL; in the assay on Staphylococcus [13], 1 µg/mL (≈ 1.98 µM).
`Cc1cn(C[C@H]2CN(c3ccc(N4CCN(C(=O)C5CCCCC5)CC4)c(F)c3)C(=O)O2)nn1`: the MIC with Staphylococcus aureus [1] was 1 µg/mL (≈ 2.13 µM); against Staphylococcus aureus [2], 2 µg/mL (≈ 4.25 µM); in the assay with Moraxella catarrhalis, 32 µg/mL (≈ 68 µM); against Enterococcus [3], 1 µg/mL (≈ 2.13 µM); in the assay on Escherichia coli it was above 64 µg/mL; in the assay on Haemophilus influenzae [4] it was 32 µg/mL (≈ 68 µM). Moreover, the MIC in the assay with Haemophilus influenzae [5] was 32 µg/mL (≈ 68 µM); against Staphylococcus [6], 1 µg/mL (≈ 2.13 µM); in the assay on Staphylococcus aureus [7], 32 µg/mL; against Staphylococcus aureus [8], 2 µg/mL (≈ 4.25 µM); against Haemophilus influenzae [9], 32 µg/mL (≈ 68 µM); with Haemophilus influenzae [10] it was 32 µg/mL (≈ 68 µM). Also, the MIC was determined as 1 µg/mL (≈ 2.13 µM) against Enterococcus [11], 4 µg/mL (≈ 8.5 µM) against Streptococcus pneumoniae, 32 µg/mL (≈ 68 µM) against Haemophilus influenzae [12] and 1 µg/mL (≈ 2.13 µM) in the assay with Staphylococcus [13].
As for `Cc1cn(C[C@H]2CN(c3ccc(N4CCN(C(=O)C(Cl)Cl)CC4)c(F)c3)C(=O)O2)nn1`, the MIC is 1 µg/mL (≈ 2.12 µM) against Staphylococcus aureus [1]; 1 µg/mL (≈ 2.12 µM) in the assay with Staphylococcus aureus [2]; 16 µg/mL (≈ 33.9 µM) in the assay on Moraxella catarrhalis; 1 µg/mL (≈ 2.12 µM) in the assay with Enterococcus [3]; above 64 µg/mL in the assay with Escherichia coli; 32 µg/mL (≈ 67.9 µM) against Haemophilus influenzae [4]. Further, the MIC with Haemophilus influenzae [5] was determined as 32 µg/mL (≈ 67.9 µM); in the assay on Staphylococcus [6] it was 0.5 µg/mL (≈ 1.06 µM); with Staphylococcus aureus [7], 8 µg/mL; in the assay on Staphylococcus aureus [8], 2 µg/mL (≈ 4.24 µM); against Haemophilus influenzae [9], 64 µg/mL (≈ 136 µM); against Haemophilus influenzae [10], 32 µg/mL (≈ 67.9 µM). The MIC in the assay with Enterococcus [11] was determined as 1 µg/mL (≈ 2.12 µM); against Streptococcus pneumoniae, 1 µg/mL (≈ 2.12 µM); against Haemophilus influenzae [12], 64 µg/mL (≈ 136 µM); with Staphylococcus [13] it was 1 µg/mL (≈ 2.12 µM).
Consider `CCC(C)C(=O)N1CCN(c2ccc(N3C[C@H](Cn4cc(C)nn4)OC3=O)cc2F)CC1` (some centres not stated), for which the MIC in the assay on Staphylococcus aureus [1] is 2 µg/mL (≈ 4.5 µM); in the assay on Staphylococcus aureus [2], 2 µg/mL (≈ 4.5 µM); against Moraxella catarrhalis it was 32 µg/mL (≈ 72 µM); against Enterococcus [3], 4 µg/mL (≈ 9 µM); against Escherichia coli it was above 64 µg/mL; against Haemophilus influenzae [4], above 64 µg/mL. Moreover, the MIC against Haemophilus influenzae [5] is above 64 µg/mL; in the assay with Staphylococcus [6], 2 µg/mL (≈ 4.5 µM); in the assay with Staphylococcus aureus [7] it was 32 µg/mL; in the assay with Staphylococcus aureus [8], 2 µg/mL (≈ 4.5 µM); in the assay with Haemophilus influenzae [9], above 64 µg/mL; in the assay with Haemophilus influenzae [10], above 64 µg/mL. The MIC in the assay on Enterococcus [11] was 4 µg/mL (≈ 9 µM); against Streptococcus pneumoniae it was 4 µg/mL (≈ 9 µM); with Haemophilus influenzae [12], above 64 µg/mL; in the assay with Staphylococcus [13] it was 2 µg/mL (≈ 4.5 µM).
For `CC(=O)N1CCN(c2ccc(N3C[C@H](Cn4cc(C)nn4)OC3=O)cc2F)CC1`, the MIC with Staphylococcus aureus [1] was 1 µg/mL (≈ 2.48 µM); with Staphylococcus aureus [2], 1 µg/mL (≈ 2.48 µM); with Moraxella catarrhalis, 8 µg/mL (≈ 19.9 µM); against Enterococcus [3], 1 µg/mL (≈ 2.48 µM); in the assay on Escherichia coli it was above 64 µg/mL; in the assay with Haemophilus influenzae [4], 64 µg/mL (≈ 159 µM). Besides, the MIC against Haemophilus influenzae [5] came out at 64 µg/mL (≈ 159 µM); against Staphylococcus [6], 1 µg/mL (≈ 2.48 µM); in the assay with Staphylococcus aureus [7], 8 µg/mL; against Staphylococcus aureus [8], 2 µg/mL (≈ 4.97 µM); in the assay on Haemophilus influenzae [9], 64 µg/mL (≈ 159 µM); in the assay with Haemophilus influenzae [10], 64 µg/mL (≈ 159 µM). Besides, the MIC in the assay with Enterococcus [11] amounted to 1 µg/mL (≈ 2.48 µM); in the assay on Streptococcus pneumoniae, 1 µg/mL (≈ 2.48 µM); against Haemophilus influenzae [12] it was 64 µg/mL (≈ 159 µM); in the assay on Staphylococcus [13], 1 µg/mL (≈ 2.48 µM).
Regarding `CC(=O)NC[C@H]1CN(c2ccc(N3CCOCC3)c(F)c2)C(=O)O1` [LINEZOLID], the MIC against Staphylococcus aureus [1] was 0.5 µg/mL (≈ 1.48 µM); against Staphylococcus aureus [2], 0.5 µg/mL (≈ 1.48 µM); with Moraxella catarrhalis, 8 µg/mL (≈ 23.7 µM); against Enterococcus [3], 0.5 µg/mL (≈ 1.48 µM); with Escherichia coli, above 64 µg/mL; with Haemophilus influenzae [4], 16 µg/mL (≈ 47.4 µM). Besides, the MIC was found to be 8 µg/mL (≈ 23.7 µM) in the assay with Haemophilus influenzae [5]; 0.5 µg/mL (≈ 1.48 µM) against Staphylococcus [6]; 16 µg/mL (≈ 47.4 µM) in the assay with Haemophilus influenzae [9]; 8 µg/mL (≈ 23.7 µM) in the assay on Haemophilus influenzae [10]; 0.5 µg/mL (≈ 1.48 µM) against Enterococcus [11]; 8 µg/mL (≈ 23.7 µM) against Haemophilus influenzae [12]. For the same compound, the MIC with Staphylococcus [13] is 0.5 µg/mL (≈ 1.48 µM).
Consider `CN[C@H](CC(C)C)C(=O)N[C@H]1C(=O)N[C@@H](CC(N)=O)C(=O)N[C@H]2C(=O)N[C@H]3C(=O)N[C@H](C(=O)N[C@H](C(=O)O)c4cc(O)cc(O)c4-c4cc3ccc4O)[C@H](O)c3ccc(c(Cl)c3)Oc3cc2cc(c3O[C@@H]2O[C@H](CO)[C@@H](O)[C@H](O)[C@H]2O[C@H]2C[C@](C)(N)[C@H](O)[C@H](C)O2)Oc2ccc(cc2Cl)[C@H]1O` [VANCOMYCIN], for which the MIC against Moraxella catarrhalis is above 16 µg/mL; against Enterococcus [3] it was 0.25 µg/mL (≈ 0.173 µM); against Escherichia coli it was above 64 µg/mL; in the assay on Haemophilus influenzae [4] it was above 16 µg/mL; against Haemophilus influenzae [5], above 16 µg/mL; in the assay on Staphylococcus [6] it was 1 µg/mL (≈ 0.69 µM). The MIC is above 16 µg/mL in the assay with Haemophilus influenzae [9]; above 16 µg/mL against Haemophilus influenzae [10]; above 64 µg/mL in the assay on Enterococcus [11]; 0.5 µg/mL (≈ 0.345 µM) against Streptococcus pneumoniae; above 16 µg/mL in the assay on Haemophilus influenzae [12]; 1 µg/mL (≈ 0.69 µM) against Staphylococcus [13].
On to `CCOC(=O)N1CCN(c2ccc(N3C[C@H](Cn4cc(C)nn4)OC3=O)cc2F)CC1`, for which the MIC in the assay with Staphylococcus aureus [1] was 1 µg/mL (≈ 2.31 µM); against Staphylococcus aureus [2], 1 µg/mL (≈ 2.31 µM); in the assay on Moraxella catarrhalis, 16 µg/mL (≈ 37 µM); against Enterococcus [3] it was 1 µg/mL (≈ 2.31 µM); with Escherichia coli it was above 64 µg/mL; against Haemophilus influenzae [4], 64 µg/mL (≈ 148 µM). The MIC turned out to be 64 µg/mL (≈ 148 µM) against Haemophilus influenzae [5]; 1 µg/mL (≈ 2.31 µM) in the assay with Staphylococcus [6]; 32 µg/mL with Staphylococcus aureus [7]; 1 µg/mL (≈ 2.31 µM) against Staphylococcus aureus [8]; 64 µg/mL (≈ 148 µM) against Haemophilus influenzae [9]; 64 µg/mL (≈ 148 µM) in the assay on Haemophilus influenzae [10]. Besides, the MIC in the assay on Enterococcus [11] was found to be 1 µg/mL (≈ 2.31 µM); against Streptococcus pneumoniae, 4 µg/mL (≈ 9.25 µM); in the assay with Haemophilus influenzae [12], 64 µg/mL (≈ 148 µM); in the assay with Staphylococcus [13], 1 µg/mL (≈ 2.31 µM).
For the compound `Cc1cn(C[C@H]2CN(c3ccc(N4CCN(C(=O)Cc5ccccc5)CC4)c(F)c3)C(=O)O2)nn1`, the MIC with Staphylococcus aureus [1] is 2 µg/mL (≈ 4.18 µM); against Staphylococcus aureus [2] it was 2 µg/mL (≈ 4.18 µM); against Moraxella catarrhalis it was 16 µg/mL (≈ 33.4 µM); in the assay on Enterococcus [3], 2 µg/mL (≈ 4.18 µM); against Escherichia coli, above 64 µg/mL; in the assay with Haemophilus influenzae [4], above 64 µg/mL. For the same compound, the MIC is above 64 µg/mL against Haemophilus influenzae [5]; 2 µg/mL (≈ 4.18 µM) in the assay on Staphylococcus [6]; above 64 µg/mL with Staphylococcus aureus [7]; 4 µg/mL (≈ 8.36 µM) in the assay with Staphylococcus aureus [8]; above 64 µg/mL against Haemophilus influenzae [9]; above 64 µg/mL in the assay on Haemophilus influenzae [10]. For the same compound, the MIC against Enterococcus [11] was 1 µg/mL (≈ 2.09 µM); in the assay on Streptococcus pneumoniae, 2 µg/mL (≈ 4.18 µM); against Haemophilus influenzae [12] it was above 64 µg/mL; against Staphylococcus [13], 2 µg/mL (≈ 4.18 µM).
Consider `Cc1cn(C[C@H]2CN(c3ccc(N4CCN(C(=O)OC(C)(C)C)CC4)c(F)c3)C(=O)O2)nn1`, for which the MIC is 2 µg/mL (≈ 4.34 µM) against Staphylococcus aureus [1]; 64 µg/mL (≈ 139 µM) against Moraxella catarrhalis; above 64 µg/mL in the assay with Escherichia coli; above 64 µg/mL in the assay on Haemophilus influenzae [4]; above 64 µg/mL in the assay on Haemophilus influenzae [5]; 64 µg/mL with Staphylococcus aureus [7]. Moreover, the MIC in the assay on Haemophilus influenzae [9] is above 64 µg/mL; with Haemophilus influenzae [10], above 64 µg/mL; against Streptococcus pneumoniae, 8 µg/mL (≈ 17.4 µM); with Haemophilus influenzae [12], above 64 µg/mL.
